Assay results: paper PMC6941823, “A dispensable paralog of succinate dehydrogenase subunit C mediates standing resistance towards a subclass of SDHI fungicides in Zymoseptoria tritici” (PLoS Pathogens, 2019)
Like-named read-outs stand apart in the source and are kept apart here.

Columns and labels:
[1] = molecular target: SQR (SDHC) of D024 SDHC3 KO mitochondria (Zymoseptoria tritici, UniProt F9X9V6+F9XH52+O42772); assay: Succinate-quinone (SQR) SDHI sensitivity assay on purified mitochondria, 06STD024 SDHC3 KO; assay type: biochemical; details: for RF (resistance factor), D024 SDHC3 KO (SDHC): IC50 ratio compared to IPO323 values; for IC50: mitochondria of 06STD024 ZtSDHC3 deletion mutant, mean of three ± SD
Sequence of SQR (SDHC) of D024 SDHC3 KO mitochondria (F9XH52 44-187): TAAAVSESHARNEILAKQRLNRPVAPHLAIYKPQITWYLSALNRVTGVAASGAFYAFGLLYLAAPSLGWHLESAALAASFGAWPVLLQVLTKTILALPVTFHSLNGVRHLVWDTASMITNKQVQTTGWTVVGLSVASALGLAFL
Sequence of SQR (SDHC) of D024 SDHC3 KO mitochondria (O42772 19-297): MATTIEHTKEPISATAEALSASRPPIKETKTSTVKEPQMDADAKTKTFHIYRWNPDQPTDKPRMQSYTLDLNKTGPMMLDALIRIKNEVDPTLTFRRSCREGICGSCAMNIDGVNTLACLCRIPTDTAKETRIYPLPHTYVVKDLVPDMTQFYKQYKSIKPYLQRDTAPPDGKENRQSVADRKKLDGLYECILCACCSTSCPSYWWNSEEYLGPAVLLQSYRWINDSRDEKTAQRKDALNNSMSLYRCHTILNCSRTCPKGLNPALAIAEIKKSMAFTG
Sequence of SQR (SDHC) of D024 SDHC3 KO mitochondria (F9X9V6 1-193): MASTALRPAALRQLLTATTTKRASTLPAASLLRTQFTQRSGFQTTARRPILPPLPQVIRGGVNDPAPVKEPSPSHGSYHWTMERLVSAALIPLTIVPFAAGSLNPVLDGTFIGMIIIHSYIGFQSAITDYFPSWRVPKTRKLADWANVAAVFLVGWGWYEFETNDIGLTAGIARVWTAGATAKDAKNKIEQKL
Sequence of SQR (SDHC) of D024 SDHC3 KO mitochondria (F9WWR1 29-643 partner): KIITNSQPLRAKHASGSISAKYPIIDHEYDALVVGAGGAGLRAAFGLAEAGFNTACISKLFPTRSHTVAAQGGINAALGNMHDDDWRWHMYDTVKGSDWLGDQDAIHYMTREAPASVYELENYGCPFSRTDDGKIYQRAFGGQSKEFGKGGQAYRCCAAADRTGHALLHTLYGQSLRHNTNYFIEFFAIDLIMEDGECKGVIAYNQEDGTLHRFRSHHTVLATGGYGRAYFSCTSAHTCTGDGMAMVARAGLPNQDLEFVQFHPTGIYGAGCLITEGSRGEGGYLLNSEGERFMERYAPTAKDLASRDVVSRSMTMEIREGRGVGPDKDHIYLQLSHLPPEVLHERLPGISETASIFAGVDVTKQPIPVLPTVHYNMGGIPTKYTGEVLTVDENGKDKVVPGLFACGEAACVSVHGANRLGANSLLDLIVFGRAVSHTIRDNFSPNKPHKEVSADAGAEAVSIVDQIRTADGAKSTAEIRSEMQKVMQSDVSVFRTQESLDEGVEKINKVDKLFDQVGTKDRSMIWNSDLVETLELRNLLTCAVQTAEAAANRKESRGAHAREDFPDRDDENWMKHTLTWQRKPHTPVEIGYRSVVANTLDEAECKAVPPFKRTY
Protocol: (§1) Succinate-ubiquinone oxidoreductase (SQR) inhibition assays were performed on mitochondrial extracts from a panel of strains that were (i) either carrying a unique C-subunit encoding gene (ZtSDHC1, ZtSDHC1_A84I or Zt-SDHC3), or (ii) carrying two C-subunit encoding genes ZtSDHC1 and ZtSDHC3 (Table 1).
(§2) Biomass production, mitochondrial extraction and purification were performed as described in [14]. Succinate: ubiquinone/DCPIP sensitivity tests were performed as described in [14] with minor modification. The different mitochondrial suspensions were adjusted to similar initial velocity (1 OD595nm hour^-1) and inhibitor concentrations ranged between 0.047nM and 50μM with uniform 4x dilution steps (11 concentrations + DMSO control). Calculated absorbance slopes (OD/min) were used for IC50 calculations using GraphPad Prism 6.07 software non-linear curve fitting against log inhibitor concentrations.

[2] = molecular target: altC-SQR (altC) of D024 SDHC1 KO mitochondria (Zymoseptoria tritici, UniProt A0A1X7RQW2+F9X9V6+O42772); assay: Succinate-quinone (SQR) SDHI sensitivity assay on purified mitochondria, 06STD024 SDHC1 KO; assay type: biochemical; details: for RF (resistance factor), D024 SDHC1 KO (altC): IC50 ratio compared to IPO323 values; for IC50: mitochondria of 06STD024 ZtSDHC1 deletion mutant (pure altC-SQR), mean of three ± SD
Protocol: as §1
(§3) Biomass production, mitochondrial extraction and purification were performed as described in [14]. Succinate: ubiquinone/DCPIP sensitivity tests were performed as described in [14] with minor modification.

[3] = molecular target: SQR of 06STD024 (SDHC / altC) mitochondria (Zymoseptoria tritici, UniProt A0A1X7RQW2+F9X9V6+F9XH52+O42772); assay: Succinate-quinone (SQR) SDHI sensitivity assay on purified mitochondria, 06STD024; assay type: biochemical; details: for RF (resistance factor), 06STD024 (SDHC / altC): IC50 ratio compared to IPO323 values; for IC50: mitochondria of field isolate 06STD024, mean of three ± SD
Protocol: as §1, §3

[4] = molecular target: WT-SQR (SDHC), IPO323 mitochondria (Zymoseptoria tritici, UniProt F9X9V6+F9XH52+O42772); assay: Succinate-quinone (SQR) SDHI sensitivity assay on purified mitochondria, IPO323; assay type: biochemical; details: mitochondria of IPO323; mean of three determinations ± SD; read-out: Succinate-quinone IC50, IPO323 (SDHC)
Protocol: as §1, §2

[5] = molecular target: SQR (SDHC / altC) of IPO323 pTet::SDHC3 transformant, repressed (Zymoseptoria tritici, UniProt A0A1X7RQW2+F9X9V6+F9XH52+O42772); assay: Succinate-quinone (SQR) SDHI sensitivity assay on purified mitochondria, IPO323 pTet::SDHC3 repressed; assay type: biochemical; details: for RF (resistance factor), pTet Repressed (SDHC / altC): IC50 ratio compared to IPO323 values; for IC50: IPO323 pTet::SDHC3 transformant grown in presence of 30 mg.L^-1 doxycycline, mean of three ± SD
Sequence of SQR (SDHC / altC) of IPO323 pTet::SDHC3 transformant, repressed (F9XH52 44-187): as the sequence (F9XH52 44-187) above
Sequence of SQR (SDHC / altC) of IPO323 pTet::SDHC3 transformant, repressed (O42772 20-297): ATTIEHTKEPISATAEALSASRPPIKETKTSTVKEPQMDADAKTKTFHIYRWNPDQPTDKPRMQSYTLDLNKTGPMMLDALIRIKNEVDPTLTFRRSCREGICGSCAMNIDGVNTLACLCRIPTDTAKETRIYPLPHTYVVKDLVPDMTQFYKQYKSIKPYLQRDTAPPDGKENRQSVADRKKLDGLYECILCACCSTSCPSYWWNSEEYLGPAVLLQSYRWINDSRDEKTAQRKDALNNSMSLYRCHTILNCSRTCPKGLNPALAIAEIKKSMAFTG
Sequence of SQR (SDHC / altC) of IPO323 pTet::SDHC3 transformant, repressed (F9X9V6 1-193): as the sequence (F9X9V6 1-193) above
Sequence of SQR (SDHC / altC) of IPO323 pTet::SDHC3 transformant, repressed (A0A1X7RQW2 36-181): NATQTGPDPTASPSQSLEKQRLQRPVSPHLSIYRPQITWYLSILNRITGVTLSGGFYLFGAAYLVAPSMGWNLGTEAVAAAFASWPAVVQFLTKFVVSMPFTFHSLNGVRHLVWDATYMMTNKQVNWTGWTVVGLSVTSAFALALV
Sequence of SQR (SDHC / altC) of IPO323 pTet::SDHC3 transformant, repressed (F9WWR1 41-643 partner): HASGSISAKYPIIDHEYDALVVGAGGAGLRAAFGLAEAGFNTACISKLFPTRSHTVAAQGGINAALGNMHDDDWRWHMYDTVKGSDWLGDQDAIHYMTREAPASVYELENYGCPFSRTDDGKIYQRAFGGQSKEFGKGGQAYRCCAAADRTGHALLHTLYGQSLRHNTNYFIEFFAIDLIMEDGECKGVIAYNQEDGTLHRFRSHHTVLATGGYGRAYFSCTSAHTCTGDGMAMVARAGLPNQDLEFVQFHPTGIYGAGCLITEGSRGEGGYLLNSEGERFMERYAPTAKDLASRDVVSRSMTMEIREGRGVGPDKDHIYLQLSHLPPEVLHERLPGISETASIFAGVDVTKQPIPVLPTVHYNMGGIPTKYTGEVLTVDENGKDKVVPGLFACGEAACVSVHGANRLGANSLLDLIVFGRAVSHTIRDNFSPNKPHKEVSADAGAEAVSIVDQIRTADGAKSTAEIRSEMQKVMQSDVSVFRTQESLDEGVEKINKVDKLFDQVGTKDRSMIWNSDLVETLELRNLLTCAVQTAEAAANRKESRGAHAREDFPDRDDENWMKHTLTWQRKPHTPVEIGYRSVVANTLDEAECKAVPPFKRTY
Protocol: as §1, §3

[6] = molecular target: C_A84I-SQR (SDHC_A84I), IPO323_Flu21 mitochondria (Zymoseptoria tritici, UniProt F9X9V6+F9XH52+O42772, A84I); assay: Succinate-quinone (SQR) SDHI sensitivity assay on purified mitochondria, IPO323_Flu21; assay type: biochemical; details: for RF (resistance factor), IPO323_Flu21 (SDHC_A84I): IC50 ratio compared to IPO323 values; for IC50: mitochondria of UV mutant IPO323_Flu21, mean of three ± SD
Sequence of C_A84I-SQR (SDHC_A84I), IPO323_Flu21 mitochondria (F9XH52 44-187, stated change not applied): as the sequence (F9XH52 44-187) above
Sequence of C_A84I-SQR (SDHC_A84I), IPO323_Flu21 mitochondria (O42772 19-297, stated change not applied): as the sequence (O42772 19-297) above
Sequence of C_A84I-SQR (SDHC_A84I), IPO323_Flu21 mitochondria (F9X9V6 whole entry, stated change not applied): as the sequence (F9X9V6 1-193) above
Sequence of C_A84I-SQR (SDHC_A84I), IPO323_Flu21 mitochondria (F9WWR1 29-643 partner): as the sequence (F9WWR1 29-643 partner) above
Protocol: as §1, §2

[7] = test system: SQR (SDHC / altC) of IPO323 pTet::SDHC3 transformant, induced; assay: Succinate-quinone (SQR) SDHI sensitivity assay on purified mitochondria, IPO323 pTet::SDHC3 induced; assay type: biochemical, Zymoseptoria tritici; details: for RF (resistance factor), pTet Induced (SDHC / altC): IC50 ratio compared to IPO323 values; for IC50: IPO323 pTet::SDHC3 transformant grown in the absence of doxycycline, mean of three ± SD
Protocol: as §1, §3

[8] = test system: Zymoseptoria tritici field and genetically modified strains; assay: Liquid culture assay for fungicide sensitivity determination; assay type: cell-based; details: liquid culture sensitivity, read-out: EC50 (nM) Mean
Protocol: Sensitivity towards commercial fungicides was determined for a set of 99 SHA-SDHI-naïve Z. tritici field isolates sampled in Europe between 2006 and 2009. The EC50 of these isolates was determined in liquid growth assays and the data obtained compared for each possible pair of SDHI fungicides (cross-resistance (XR) plots, Fig 1). […] Comparative succinate-quinone reductase (SQR) enzyme inhibition tests were performed with mitochondria extracted from a panel of SHA-SDHIs tolerant and sensitive isolates.
In order to characterize in more depth the mechanisms driving sensitivity differences across the isolates, a subset of eight isolates carrying the ZtSDHC3 gene was analyzed for their sensitivity to SDHIs, alt-SDHC expression and splicing patterns. Liquid culture growth sensitivity tests were performed to determine EC50s for this set of isolates towards a wide range of commercial and research SDHIs (S5 Table).
Pre-culture of the inoculum and fungicide sensitivity tests were performed following previously described procedures. Different ranges of inhibitor concentrations were used for population monitoring and for the detailed phenotyping of a selected set of individual field isolates and genetically modified strains. For fungicide sensitivity monitoring of European field populations, final inhibitors concentrations were between 100 mg.L^-1 and 0.0001 mg.L^-1 with uniform 10x dilution steps (7 inhibitor concentrations + DMSO control). For refined sensitivity analysis of a smaller panel of isolates final inhibitor concentrations ranged between 0.5 mM and 0.47 nM with uniform 4x dilution factor steps (11 inhibitor concentrations+ DMSO control).

SMILES	RF (resistance factor), D024 SDHC3 KO (SDHC) [1]	IC50 [1] [µM]	RF (resistance factor), D024 SDHC1 KO (altC) [2]	IC50 [2] [µM]	RF (resistance factor), 06STD024 (SDHC / altC) [3]	IC50 [3] [µM]	IC50 [4] [µM]	RF (resistance factor), pTet Repressed (SDHC / altC) [5]	IC50 [5] [µM]	RF (resistance factor), IPO323_Flu21 (SDHC_A84I) [6]	IC50 [6] [µM]	RF (resistance factor), pTet Induced (SDHC / altC) [7]	IC50 [7] [µM]	EC50 ([8]; strain 06STD024) [nM]	EC50 ([8]; strain 07STGB009) [nM]	EC50 ([8]; strain 09STD041) [nM]	EC50 ([8]; strain 09STD053) [nM]	EC50 ([8]; strain 09STF011) [nM]	EC50 ([8]; strain 09STF037) [nM]	EC50 ([8]; strain 09STF112) [nM]	other results
Cn1cc(C(=O)Nc2ccc(F)cc2-c2ccc(Cl)c(Cl)c2)c(C(F)F)n1 [Bixafen]	1.0	0.0013 ± 0.0002	1.5	0.0021 ± 0.0006	1.3	0.0018 ± 0.0007	0.0014 ± 0.0001	1.1	0.0015 ± 0.0006	2.3	0.0032 ± 0.0005	1.3	0.0018 ± 0.0004	83.8	102	219	102	70.1	111	171	EC50 ([8]; strain 09STIR20.3): 204 nM; EC50 ([8]; strain Flu21 (SDHC1_A84I)): 959 nM; EC50 ([8]; strain IPO323): 106 nM; EC50 ([8]; strain IPO94269): 109 nM; EC50 ([8]; strain KO_SDHC1_T1): 710 nM; EC50 ([8]; strain KO_SDHC1_T3): 447 nM; EC50 ([8]; strain KO_SDHC3_T4): 204 nM; EC50 ([8]; strain KO_SDHC3_T13): 180 nM; EC50 ([8]; strain pTet::SDHC3_I78A_T1): 94.3 nM; EC50 ([8]; strain pTet::SDHC3_I78A_T5): 174 nM; EC50 ([8]; strain pTet::SDHC3_I78A_T15): 104 nM; EC50 ([8]; strain pTet::SDHC3_I78A_T35): 27.7 nM; EC50 ([8]; strain pTet::SDHC3_T1): 141 nM; EC50 ([8]; strain pTet::SDHC3_T2): 185 nM; EC50 ([8]; strain pTet::SDHC3_T3): 120 nM; EC50 ([8]; strain pTet::SDHC3_T7): 192 nM
Cn1cc(C(=O)Nc2cccc3c2[C@@H]2CC[C@H]3C2=C(Cl)Cl)c(C(F)F)n1 (racemic) [Benzovindiflupyr]	0.8	0.0006 ± 0.00011	0.9	0.0006 ± 5e-05	0.8	0.0005 ± 0.00017	0.0007 ± 0.0002	0.8	0.0005 ± 3e-05	1.4	0.001 ± 0.0002	0.8	0.0005 ± 9e-05	17	15	54	88	96	54	204	EC50 ([8]; strain 09STIR20.3): 147 nM; EC50 ([8]; strain Flu21 (SDHC1_A84I)): 927 nM; EC50 ([8]; strain IPO323): 39 nM; EC50 ([8]; strain IPO94269): 108 nM; EC50 ([8]; strain KO_SDHC1_T1): 59 nM; EC50 ([8]; strain KO_SDHC1_T3): 40 nM; EC50 ([8]; strain KO_SDHC3_T4): 93 nM; EC50 ([8]; strain KO_SDHC3_T13): 90 nM; EC50 ([8]; strain pTet::SDHC3_I78A_T1): 28 nM; EC50 ([8]; strain pTet::SDHC3_I78A_T5): 87 nM; EC50 ([8]; strain pTet::SDHC3_I78A_T15): 47 nM; EC50 ([8]; strain pTet::SDHC3_I78A_T35): 20 nM; EC50 ([8]; strain pTet::SDHC3_T1): 40 nM; EC50 ([8]; strain pTet::SDHC3_T2): 44 nM; EC50 ([8]; strain pTet::SDHC3_T3): 30 nM; EC50 ([8]; strain pTet::SDHC3_T7): 50 nM
